For 21 compounds, Ki and Activity results are on record in ChEMBL document CHEMBL4422619, “Continued exploration of 1,2,4-oxadiazole periphery for carbonic anhydrase-targeting primary arene sulfonamides: Discovery of subnanomolar inhibitors of membrane-bound hCA IX isoform that selectively kill cancer cells in hypoxic environment” (Eur J Med Chem, 2019).

In one data set the target is Carbonic anhydrase 9 (Homo sapiens, UniProt Q16790).
In another data set the target is Carbonic anhydrase 1 (Homo sapiens, UniProt P00915). Nature of the data set: Inhibition of human carbonic anhydrase 1 assessed as reduction in CO2 hydration after 15 mins by phenol red staining-based stopped flow assay.
Carbonic anhydrase 1, sequence (P00915 whole entry): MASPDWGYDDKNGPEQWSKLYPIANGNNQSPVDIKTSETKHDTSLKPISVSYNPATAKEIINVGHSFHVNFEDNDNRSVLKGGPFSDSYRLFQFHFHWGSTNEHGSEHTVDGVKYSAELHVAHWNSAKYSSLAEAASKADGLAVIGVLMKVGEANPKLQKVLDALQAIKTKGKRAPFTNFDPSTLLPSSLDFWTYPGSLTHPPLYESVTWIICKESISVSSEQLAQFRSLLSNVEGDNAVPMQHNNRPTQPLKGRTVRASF
For a further data set, the target named is Carbonic anhydrase 12 (Homo sapiens, UniProt O43570).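 Note: Stopped-flow CO2 hydration assay with phenol red indicator, 15 min, measuring inhibition of human CA XII enzymatic activity.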
Carbonic anhydrase 12, sequence (O43570 whole entry): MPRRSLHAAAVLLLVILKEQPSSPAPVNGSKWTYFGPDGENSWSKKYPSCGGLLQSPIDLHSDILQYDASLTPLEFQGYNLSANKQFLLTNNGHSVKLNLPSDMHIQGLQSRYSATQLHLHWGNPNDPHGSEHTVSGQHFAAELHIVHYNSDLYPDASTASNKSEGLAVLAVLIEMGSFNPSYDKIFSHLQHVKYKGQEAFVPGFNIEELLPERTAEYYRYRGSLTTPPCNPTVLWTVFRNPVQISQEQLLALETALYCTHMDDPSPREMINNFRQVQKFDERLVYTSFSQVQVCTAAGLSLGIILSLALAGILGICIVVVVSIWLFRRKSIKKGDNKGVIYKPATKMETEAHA
In another data set the target is Carbonic anhydrase 2 (Homo sapiens, UniProt P00918). Nature of the data set: Inhibition of human carbonic anhydrase 2 assessed as reduction in CO2 hydration after 15 mins by phenol red staining-based stopped flow assay.
Data set [1] relates to PANC-1. The experiment in a line: Antiproliferative activity against human PANC1 cells at 30 to 300 uM after 48 hrs in presence of hypoxic condition by MTT assay. It counts as functional, cell-based. (Tetrazolium assays rely on reduction of a dye to a coloured formazan, in cell work by metabolically active cells.)
The test system of data set [2] is PANC-1. The experiment in a line: Antiproliferative activity against human PANC1 cells at 30 to 300 uM after 48 hrs in presence of normoxic condition by MTT assay. It is filed as functional, cell-based.
The subject of data set [3] is ARPE-19. The experiment in a line: Antiproliferative activity against human ARPE19 cells at 30 to 300 uM after 48 hrs in presence of hypoxic condition by MTT assay. It counts as cell-based. The following applies: arpe-19, 48 h.
Data set [4] has as its system ARPE-19. Nature of the data set: Antiproliferative activity against human ARPE19 cells at 30 to 300 uM after 48 hrs in presence of normoxic condition by MTT assay. It is filed as cell-based. The following applies: arpe-19, 48 h.
Data set [5] concerns PANC-1. The experiment in a line: Antiproliferative activity against human PANC1 cells after 48 hrs in presence of hypoxic condition by MTT assay. It is filed as functional, cell-based.
In data set [6] the test system is SK-MEL-2. The experiment in a line: Antiproliferative activity against human SK-MEL-2 cells after 48 hrs in presence of normoxic condition by MTT assay. It is filed as functional, cell-based.
Data set [7] relates to SK-MEL-2. Nature of the data set: Antiproliferative activity against human SK-MEL-2 cells after 48 hrs in presence of hypoxic condition by MTT assay. It is filed as functional, cell-based.
The subject of data set [8] is PANC-1. The experiment in a line: Antiproliferative activity against human PANC1 cells after 48 hrs in presence of normoxic condition by MTT assay. It is filed as functional, cell-based.
Data set [9] relates to PANC-1. The experiment in a line: Antiproliferative activity against human PANC1 cells at 30 uM after 48 hrs in presence of hypoxic condition by MTT assay. It is filed as functional, cell-based.
Data set [10] concerns ARPE-19. Nature of the data set: Antiproliferative activity against human ARPE19 cells at 30 uM after 48 hrs in presence of hypoxic condition by MTT assay. It is filed as cell-based. The settings on record: arpe-19, 48 h.
For data set [11], the system named is SK-MEL-2. The experiment in a line: Antiproliferative activity against human SK-MEL-2 cells at 30 uM after 48 hrs in presence of normoxic condition by MTT assay. It is filed as functional, cell-based.
The subject of data set [12] is ARPE-19. The experiment in a line: Antiproliferative activity against human ARPE19 cells at 30 uM after 48 hrs in presence of normoxic condition by MTT assay. The following applies: arpe-19, 48 h. It counts as cell-based.
The test system of data set [13] is PANC-1. Nature of the data set: Antiproliferative activity against human PANC1 cells at 30 uM after 48 hrs in presence of normoxic condition by MTT assay. It is filed as functional, cell-based.
The test system of data set [14] is SK-MEL-2. The experiment in a line: Antiproliferative activity against human SK-MEL-2 cells at 30 uM after 48 hrs in presence of hypoxic condition by MTT assay. It counts as functional, cell-based.
Data set [15] relates to SK-MEL-2. Nature of the data set: Antiproliferative activity against human SK-MEL-2 cells at 300 uM after 48 hrs in presence of hypoxic condition by MTT assay. It is filed as functional, cell-based.
The subject of data set [16] is SK-MEL-2. The experiment in a line: Antiproliferative activity against human SK-MEL-2 cells at 300 uM after 48 hrs in presence of normoxic condition by MTT assay. It is filed as functional, cell-based.
In data set [17] the test system is ARPE-19. The experiment in a line: Antiproliferative activity against human ARPE19 cells at 300 uM after 48 hrs in presence of hypoxic condition by MTT assay. It is filed as cell-based. The settings on record: arpe-19, 48 h.
The subject of data set [18] is ARPE-19. The experiment in a line: Antiproliferative activity against human ARPE19 cells at 300 uM after 48 hrs in presence of normoxic condition by MTT assay. The following applies: arpe-19, 48 h. It counts as cell-based.
In data set [19] the test system is PANC-1. The experiment in a line: Antiproliferative activity against human PANC1 cells at 300 uM after 48 hrs in presence of normoxic condition by MTT assay. It counts as functional, cell-based.
For data set [20], the system named is PANC-1. Nature of the data set: Antiproliferative activity against human PANC1 cells at 300 uM after 48 hrs in presence of hypoxic condition by MTT assay. It is filed as functional, cell-based.

Active and inactive are the calls of the source. No cut-off for these calls is given here.

Description for Carbonic anhydrase 12: Inhibition of human carbonic anhydrase 12 assessed as reduction in CO2 hydration after 15 mins by phenol red staining-based stopped flow assay
Description for Carbonic anhydrase 9: Inhibition of human carbonic anhydrase 9 assessed as reduction in CO2 hydration after 15 mins by phenol red staining-based stopped flow assay

The term Ki denotes a dissociation constant, usually derived from enzyme kinetics or from competition with a known ligand. On to `NS(=O)(=O)c1ccc(-c2noc(C3CC3)n2)cc1`, for which the Ki at Carbonic anhydrase 9 worked out at 1.9 nM; on Carbonic anhydrase 1, 7.8 nM; at Carbonic anhydrase 12, 97.1 nM; on Carbonic anhydrase 2 it was 4.1 nM.
Take `NS(=O)(=O)c1cccc(-c2noc(C3CC3)n2)c1`: the result with PANC-1 [1] and with PANC-1 [2] was Active. In addition, the Activity entry with ARPE-19 [3] and in the data set on ARPE-19 [4] was “Non-Toxic” each time.
`NS(=O)(=O)c1cc(-c2noc(C3CC3)n2)cs1`: the Ki at Carbonic anhydrase 9 came to 2.1 nM; on Carbonic anhydrase 1 it was 53 nM; on Carbonic anhydrase 12, 9.2 nM; at Carbonic anhydrase 2, 0.88 nM.
For `COc1ccccc1-c1noc(-c2csc(S(N)(=O)=O)c2)n1` the same measures were 0.13 nM, 16.2 nM, 8.8 nM and 0.64 nM.
As for `COc1cc(S(N)(=O)=O)ccc1-c1noc(-c2cccs2)n1`, the values for the Ki on Carbonic anhydrase 9 and on Carbonic anhydrase 2 were 15.9 nM and 92.1 nM, respectively.
As for `COc1cccc(-c2noc(-c3csc(S(N)(=O)=O)c3)n2)c1`, the Ki on Carbonic anhydrase 9 stood at 2.2 nM; on Carbonic anhydrase 1, 5.4 nM; at Carbonic anhydrase 12, 33.6 nM; at Carbonic anhydrase 2, 0.82 nM. Besides, the Activity result in the data set with PANC-1 [5] is “Dose-dependent effect”; in the data set with PANC-1 [8] it was “Dose-dependent effect”; in the data set on ARPE-19 [3], “Non-Toxic”; in the data set with ARPE-19 [4], “Non-Toxic”. In addition, the result in the data set with SK-MEL-2 [6] and in the data set with SK-MEL-2 [7] was inactive. In addition, the result in the data set on PANC-1 [1] and with PANC-1 [2] was Active.
On to `NS(=O)(=O)c1cc(-c2nc(C3CC3)no2)cs1`, for which the Ki on Carbonic anhydrase 9 was determined as 0.089 nM; on Carbonic anhydrase 1, 9.3 nM; at Carbonic anhydrase 12, 10.3 nM; on Carbonic anhydrase 2, 0.75 nM. Moreover, the result in the data set with PANC-1 [9], in the data set with SK-MEL-2 [11], in the data set on PANC-1 [13] and in the data set with SK-MEL-2 [14] was Active. The Activity result in the data set on ARPE-19 [10] and in the data set with ARPE-19 [12] was “Non-Toxic” each time.
`NS(=O)(=O)c1ccc(-c2noc(-c3ccccn3)n2)cc1`: the Ki was 0.31 nM on Carbonic anhydrase 9, 37.5 nM at Carbonic anhydrase 1, 9.5 nM at Carbonic anhydrase 12 and 0.93 nM on Carbonic anhydrase 2.
As for `NS(=O)(=O)c1cc(-c2nc(-c3ccccn3)no2)cs1`, the Ki on Carbonic anhydrase 9 came out at 0.39 nM; at Carbonic anhydrase 1, 25 nM; on Carbonic anhydrase 12 it was 8.5 nM; on Carbonic anhydrase 2, 4.3 nM. For the same compound, the Activity entry with ARPE-19 [10] is “Non-Toxic”; with PANC-1 [5] it was “Dose-dependent effect”; with ARPE-19 [12], “Non-Toxic”; with PANC-1 [8], “Dose-dependent effect”; with ARPE-19 [3] it was “Non-Toxic”. Moreover, the result in the data set on PANC-1 [1], in the data set with SK-MEL-2 [11] and in the data set on SK-MEL-2 [14] was inactive.
Consider `Cc1nc(-c2csc(S(N)(=O)=O)c2)no1`, for which the inhibitory constant (Ki) on Carbonic anhydrase 9 amounted to 1.6 nM; on Carbonic anhydrase 1, 8.1 nM; at Carbonic anhydrase 12 it was 10.1 nM; on Carbonic anhydrase 2, 0.91 nM.
Consider `NS(=O)(=O)c1cccc(-c2noc(-c3ccsc3)n2)c1`, for which the result in the data set with SK-MEL-2 [15], in the data set on SK-MEL-2 [16], in the data set on PANC-1 [1], in the data set with SK-MEL-2 [11], in the data set on PANC-1 [2] and in the data set on SK-MEL-2 [14] was inactive. The Activity entry in the data set with ARPE-19 [10] was “Non-Toxic”; with ARPE-19 [12], “Non-Toxic”; with ARPE-19 [17], “Toxic”; in the data set on ARPE-19 [18] it was “Toxic”.
For `NS(=O)(=O)c1ccc(-c2nc(-c3ccccc3)no2)cc1`, the figures for the inhibition constant (Ki) at Carbonic anhydrase 9 and at Carbonic anhydrase 2 were 6.7 nM and 1.8 nM, respectively.
As for `COc1ccccc1-c1noc(-c2ccc(S(N)(=O)=O)cc2)n1`, the Ki stood at 21.1 nM at Carbonic anhydrase 9 and 0.51 nM on Carbonic anhydrase 2.
Regarding `NS(=O)(=O)c1cc(-c2nc(-c3ccccc3)no2)cs1`, the Ki amounted to 0.24 nM on Carbonic anhydrase 9, 8.9 nM on Carbonic anhydrase 1, 9.8 nM on Carbonic anhydrase 12 and 1.7 nM at Carbonic anhydrase 2. In addition, the outcome in the data set with PANC-1 [19] and with PANC-1 [20] was Active. In addition, the Activity entry with ARPE-19 [17] and in the data set with ARPE-19 [18] was “Toxic” throughout.
As for `NS(=O)(=O)c1ccc(-c2noc(-c3ccncc3)n2)cc1`, the Ki at Carbonic anhydrase 9 was found to be 0.44 nM; on Carbonic anhydrase 1, 48 nM; at Carbonic anhydrase 12, 8.2 nM; on Carbonic anhydrase 2 it was 0.3 nM.
As for `COc1cc(S(N)(=O)=O)ccc1-c1noc(-c2cccnc2)n1`, the Ki was determined as 12.1 nM on Carbonic anhydrase 9, 1020 nM on Carbonic anhydrase 1, 16.8 nM on Carbonic anhydrase 12 and 271 nM on Carbonic anhydrase 2.
`NS(=O)(=O)c1ccc(-c2noc(-c3cccs3)n2)cc1`: the Ki at Carbonic anhydrase 9 stood at 0.36 nM; at Carbonic anhydrase 1, 7.9 nM; on Carbonic anhydrase 12, 8.3 nM; at Carbonic anhydrase 2, 0.39 nM. In addition, the result in the data set with SK-MEL-2 [15], in the data set on SK-MEL-2 [16], in the data set on PANC-1 [1], in the data set on SK-MEL-2 [11], with PANC-1 [2] and in the data set on SK-MEL-2 [14] was inactive. The Activity result in the data set with ARPE-19 [10] was “Non-Toxic”; in the data set with ARPE-19 [12] it was “Non-Toxic”; in the data set on ARPE-19 [17], “Toxic”; with ARPE-19 [18], “Toxic”.
For `COc1cc(S(N)(=O)=O)ccc1-c1noc(-c2ccccc2)n1`, the inhibition constant Ki at Carbonic anhydrase 9 was determined as 13.1 nM; on Carbonic anhydrase 1 it was 459 nM; on Carbonic anhydrase 12 it was 33.1 nM; on Carbonic anhydrase 2 it was 8.8 nM.
As for `COc1cccc(-c2noc(-c3ccc(S(N)(=O)=O)cc3)n2)c1`, the Ki was determined as 243 nM on Carbonic anhydrase 9 and 0.48 nM at Carbonic anhydrase 2.
`COc1cc(S(N)(=O)=O)ccc1-c1noc(-c2ccc(C#N)cc2)n1`: the Ki on Carbonic anhydrase 9 turned out to be 274 nM; at Carbonic anhydrase 1, 779 nM; at Carbonic anhydrase 12, 32.9 nM; at Carbonic anhydrase 2 it was 593 nM.
In the same order, the values of `COc1cc(S(N)(=O)=O)ccc1-c1noc(-c2ccsc2)n1` are 15.9 nM, 1160 nM, 32.1 nM and 92.1 nM.
